Results published in patent publication US5171835A, “LHRH antagonists” (The Administrators of the Tulane Educational Fund, priority 1991, dated 1992).

Experiments:
[1] = tested on: membrane receptors of human breast cancer cells; experiment: Receptor binding, human breast cancer cell membranes (125I-[D-Trp6]LHRH as labelled ligand); details: 125I-[D-Trp]6 LHRH labelled ligand; for Affinity Constant Ka 1: NB = no binding
Experimental: Affinity of peptides to rat pituitary and human breast cancer cell membranes is determined by using labelled LHRH and [D-Trp^6 ]LHRH. The assay is carried out similarly to that described by T. Kadar et al., Proc. Natl. Acad. Sci. USA, 85, 890-894 (1988) and M. Fekete et al., Endocrinology, 124, 946-955 (1989).

[2] = tested on: perfused rat pituitary cell system (LH response to LH-RH); experiment: LH-RH inhibiting activity in superfused rat pituitary cell system; format: cell-based
Experimental: Immediately after that, a mixture containing the same concentration of peptide and 3 nM LHRH is administered for 3 min. This was followed by four consecutive infusions of 3 nM LHRH for 3 min (1 ml perfusate) at 30 min intervals (30, 60, 90, 120 min). LH content of the 1 ml fractions collected is determined by radioimmunoassay (RIA).

[3] = tested on: ovulation in 4-day-cycling rats; experiment: In vivo antiovulatory activity in 4-day-cycling rats; design: species or system rat
Experimental: (b) In vivo antiovulatory activity of peptides is determined in 4-day-cycling rats as described [A. Corbin and C. W. Beattie, Endocr. Res. Commun., 2, 1-23 (1975)].

[4] = antagonist to LH-RH ratio 3:1, 0 min
[5] = antagonist to LH-RH ratio 3:1, 30 min
[6] = antagonist to LH-RH ratio 3:1, 60 min
[7] = antagonist to LH-RH ratio 3:1, 90 min
[8] = antagonist to LH-RH ratio 1:1, 0 min
[9] = antagonist to LH-RH ratio 1:1, 30 min
[10] = antagonist to LH-RH ratio 1:1, 60 min
[11] = antagonist to LH-RH ratio 1:1, 90 min

Ac-D-Nal(2)-D-Phe(4Cl)-D-Pal(3)-Ser-Tyr-D-Lys[DL-A2 bu(Ac)2 ]-Leu-Arg-Pro-D-Ala-NH2 [Peptide 14]
Affinity Constant Ka 2 [1]: 0.28 µM⁻¹
Affinity Constant Ka 1 [1]: 4.83 nM⁻¹
% inhibition of LH response [2, 4]: 80%
% inhibition of LH response [2, 5]: 63%
% inhibition of LH response [2, 6]: 51%
% inhibition of LH response [2, 7]: 53%
% Blockade of Ovulation ([3]; dose 1.5 μg): 20%

Ac-D-Nal(2)-D-Phe(4Cl)-D-Pal(3)-Ser-Tyr-D-Lys[DL-A2 bu(Car)2 ]-Leu-Arg-Pro-D-Ala-NH2 [Peptide 16]
% inhibition of LH response [2, 8]: 52%
% inhibition of LH response [2, 9]: 33%
% inhibition of LH response [2, 10]: 24%
% inhibition of LH response [2, 11]: 28%
% Blockade of Ovulation ([3]; dose 1.5 μg): 33%

Ac-D-Nal(2)-D-Phe(4Cl)-D-Pal(3)-Ser-Tyr-D-Lys[DL-A2 bu(For)2 ]-Leu-Arg-Pro-D-Ala-NH2 [Peptide 15]
% inhibition of LH response [2, 8]: 44%
% inhibition of LH response [2, 9]: 41%
% inhibition of LH response [2, 10]: 22%
% inhibition of LH response [2, 11]: 23%
% inhibition of LH response [2, 4]: 99%
% inhibition of LH response [2, 5]: 60%
% inhibition of LH response [2, 6]: 34%
% inhibition of LH response [2, 7]: 21%
% Blockade of Ovulation ([3]; dose 1.5 μg): 100%
% Blockade of Ovulation ([3]; dose is 0.375 μg): 25%

Ac-D-Nal(2)-D-Phe(4Cl)-D-Pal(3)-Ser-Tyr-D-Lys[DL-A2 bu(LAU)2 ]-Leu-Arg-Pro-D-Ala-NH2 [Peptide 19]
Affinity Constant Ka 2 [1]: 0 µM⁻¹
Affinity Constant Ka 1 [1]: 0 nM⁻¹
% inhibition of LH response [2, 8]: 20%
% inhibition of LH response [2, 9]: 20%
% inhibition of LH response [2, 10]: 0%
% inhibition of LH response [2, 11]: 0%

Ac-D-Nal(2)-D-Phe(4Cl)-D-Pal(3)-Ser-Tyr-D-Lys[DL-A2 bu(PRL)2 ]-Leu-Arg-Pro-D-Ala-NH2 [Peptide 18]
Affinity Constant Ka 2 [1]: 6.17 µM⁻¹
Affinity Constant Ka 1 [1]: 21.18 nM⁻¹
% inhibition of LH response [2, 4]: 90%
% inhibition of LH response [2, 5]: 71%
% inhibition of LH response [2, 6]: 58%
% inhibition of LH response [2, 7]: 54%
% Blockade of Ovulation ([3]; dose 0.75 μg): 75%

Ac-D-Nal(2)-D-Phe(4Cl)-D-Pal(3)-Ser-Tyr-D-Lys[DL-A2 bu]-Leu-Arg-Pro-D-Ala-NH2 [Peptide 26]
% inhibition of LH response [2, 8]: 70%
% inhibition of LH response [2, 9]: 52%
% inhibition of LH response [2, 10]: 37%
% inhibition of LH response [2, 4]: 90%
% inhibition of LH response [2, 5]: 75%
% inhibition of LH response [2, 6]: 62%
% inhibition of LH response [2, 7]: 57%

Ac-D-Nal(2)-D-Phe(4Cl)-D-Trp-Ser-Arg-D-Lys[A2 pr(Ac)2 ]-Leu-Arg-Pro-D-Ala-NH2 [Peptide 23]
Affinity Constant Ka 2 [1]: 0.14 µM⁻¹
Affinity Constant Ka 1 [1]: 6.87 nM⁻¹
% inhibition of LH response [2, 4]: 52%
% inhibition of LH response [2, 5]: 22%
% inhibition of LH response [2, 6]: 21%
% inhibition of LH response [2, 7]: 22%

Ac-D-Nal(2)-D-Phe(4Cl)-D-Trp-Ser-Arg-D-Lys[A2 pr(Car)2 ]-Leu-Arg-Pro-D-Ala-NH2 [Peptide 22]
Affinity Constant Ka 2 [1]: 2.67 µM⁻¹
Affinity Constant Ka 1 [1]: 4.09 nM⁻¹
% inhibition of LH response [2, 4]: 64%
% inhibition of LH response [2, 5]: 22%
% inhibition of LH response [2, 6]: 24%

Ac-D-Nal(2)-D-Phe(4Cl)-D-Trp-Ser-Arg-D-Lys[A2 pr(For)2 ]-Leu-Arg-Pro-D-Ala-NH2 [Peptide 24]
% inhibition of LH response [2, 8]: 36%
% inhibition of LH response [2, 9]: 11%
% inhibition of LH response [2, 10]: 0%
% inhibition of LH response [2, 11]: 9%
% inhibition of LH response [2, 4]: 58%
% inhibition of LH response [2, 5]: 5%
% inhibition of LH response [2, 6]: 18%
% inhibition of LH response [2, 7]: 27%
% Blockade of Ovulation ([3]; dose 1.5 μg): 50%
